Key:
Format in all cases: cell-based
[1] = test system: human ovarian epithelial carcinoma TOV-21G cells; test: Eribulin and IN10018: microscopy and CRT/Annexin-V/PI flow cytometry; details: 48 hours, IN10018 10 µM, Eribulin 0.045 µM, alone or combined
Method: (§1) ID8 cells and TOV-21G cells were cultured in monolayer in vitro. ID8 cells were cultured in DMEM medium with 10% fetal bovine serum. TOV-21G cells were cultured in RPMI-1640 medium with 10% fetal bovine serum. Both were cultured in a 37 °C, 5% CO2 incubator. Trypsin was used for routine digestion and passage treatment two to three times a week. When the cells were in the exponential growth phase and the adherent confluence reached 80%-90%, the cells were harvested and plated.
(§2) ID8 cells and TOV-21G cells were digested with trypsin and then collected and counted. Based on the counting results, the cells were diluted with the corresponding complete culture medium to a concentration of 50,000 cells per milliliter. Then the cells were plated in 12-well cell culture plates, with 2 ml of cell suspension per well, i.e., 100,000 cells.
(§3) After plating, the cells were cultured in a 37°C and 5% CO2 incubator.
(§4) After 24 hours of plating, test compounds IN10018 and Eribulin were added to different wells, respectively.
(§5) After 48 hours of drug action, the cells were photographed using a microscope, and then trypsinized and collected for flow cytometry staining.
(§6) The cells were washed twice with flow buffer (DPBS + 2% FBS). 0.5 µL of AF647 Anti-Calreticulin Antibody was added to each well, and mixed. The cells were incubated at 4°C in the dark for 20 min. After washing once with flow buffer, 195 µL of Annexin-V-FITC binding solution was added, and the cells were gently mixed well. 5 µL of Annexin-V-FITC antibody was added. After further mixing, 10 µL of PI dye was added and mixed well. The cells were incubated at room temperature in the dark for 15 min. The cells were then subjected to flow cytometry.
(§7) After the assay, the cell positive rate was analyzed by Flowjo (V10) software.

[2] = test system: mouse ovarian epithelial carcinoma ID8 cells; test: as above; details: 48 hours, IN10018 10 µM, Eribulin 0.045 µM, alone or combined
Method: as §1, §2, §3, §4, §5, §6, §7

[3] = test system: mouse colon cancer CT26 cells; test: Docetaxel/Eribulin/Paclitaxel and Defactinib: microscopy and CRT/Annexin-V/PI flow cytometry; details: 48 hours, Defactinib 5 µM, Docetaxel 0.3 µM, Eribulin 0.3 µM, Paclitaxel 6 µM, alone or combined with Defactinib
Method: (§8) CT26 cells were cultured in monolayer in vitro under the following conditions: RPMI-1640 medium with 10% fetal bovine serum, 37°C, 5% CO2. Trypsin was used for routine digestion and passage treatment two to three times a week. When the cells were in the exponential growth phase and the adherent confluence reached 80%-90%, the cells were harvested and plated.
as §2, with “CT26” for “ID8 cells and TOV-21G”, “trypsin,” for “trypsin”, “then the cells were” for “then”
as §3
After 24 hours of plating, the test compounds Docetaxel, Eribulin, Paclitaxel and Defactinib were added to different wells, respectively.
as §5
as §6, with “mixed well.” for “mixed.”
as §7

MDA-MB-231 cells [4] = test: FAK silencing combined with Eribulin, Calreticulin (ICD target) by flow cytometry; details: MDA-MB-231 cells transfected with FAK siRNA 50 nM for 24 hours, then 0.15 µM Eribulin 48 hours; vs control siRNA
Method: (§9) • 1. FAK silencing combined with Eribulin promotes apoptosis of breast cancer cells MDA-MB-231 The siRNA technology was used in the in vitro assays to reduce the expression level of FAK, and combined with Eribulin for 48 hours; flow cytometry was used to detect apoptosis in control and FAK silenced cells. • 2. FAK silencing combined with Eribulin can effectively promote the production of ICD in breast cancer cells MDA-MB-231 The siRNA technology was used in the in vitro assay to reduce the expression level of FAK, and combined with Eribulin for 48 hours. Flow cytometry was used to detect the expression of Calreticulin, the main target of ICD.
(§10) Recombinant Alexa Fluor® 647 fluorescent Anti-Calreticulin antibody (Abcam, ab196159), Annexin V apoptosis detection kit (Invitrogen, A35110).
(§11) FAK siRNA was provided by Gene Pharma, and the sequence is shown in the following table: • F: […]; • R: […] • Assay instruments: Fluorescence microscope (Olympus U-HGLGPS). Chemiluminescence imager (BIORAD chemidoc touch).
(§12) • 1. […] The cells were stained using Annexin V kit and detected by flow cytometry. The early and late apoptosis values were counted, compared with those of the DMSO control group, and plotted using Graphpad 8.0. […] The cells were fluorescent stained with Calreticulin antibody, and the staining results were analyzed by flow cytometry.

MDA-MB-231 cells [5] = test: FAK silencing combined with Eribulin, Annexin V apoptosis by flow cytometry; details: MDA-MB-231 cells transfected with FAK siRNA 50 nM for 24 hours, then 0.15 µM Eribulin 48 hours; FAK silencing group compared with control group
Method: as §9, §10, §11, §12

[6] = test system: mouse breast cancer 4T1 cells; test: Eribulin and IN10018: microscopy and CRT/Annexin-V/PI and GRP94 flow cytometry; details: 48 hours, IN10018 5 µM, Eribulin 0.15 µM or 0.45 µM, alone or combined
Method: as §8, with “4T1” for “CT26”, “37 °C,” for “37°C,”
as §2, with “4T1” for “ID8 cells and TOV-21G”, “RPMI-1640+10% FBS” for “the corresponding complete culture medium”, “cells. After plating, the cells were cultured in a 37°C and 5% CO2 incubator.” for “cells.”
as §4, §5
The cells were washed twice with flow buffer (DPBS + 2% FBS), and each group of cells was divided into two equal parts. In one part, 0.5 µL of AF647 Anti-Calreticulin Antibody was added to each well, and mixed. The cells were incubated at 4°C in the dark for 20 min. […]
as §7

[7] = test system: mouse breast cancer 4T1 cells; test: Docetaxel/Eribulin and Defactinib: microscopy and CRT/Annexin-V/PI flow cytometry; details: 48 hours, Defactinib 5 µM, Docetaxel 0.3 µM, Eribulin 0.1 µM, alone or combined with Defactinib
Method: 4T1 cells were cultured in a monolayer in vitro in RPMI-1640 medium with 10% fetal bovine serum in a 37 °C, 5% CO2 incubator. Trypsin was used for routine digestion and passage treatment two to three times a week. When the cells were in the exponential growth phase and the adherent confluence reached 80%-90%, the cells were harvested and plated.
as §2, with “4T1” for “ID8 cells and TOV-21G”, “trypsin,” for “trypsin”, “then the cells were” for “then”
as §3
After 24 hours of plating, the test compounds Defactinib, Docetaxel and Eribulin were added to different wells, respectively.
as §5
The cells were washed twice with flow buffer (DPBS + 2% FBS). 0.5 µL of AF647 Anti-Calreticulin Antibody was added to each well, and mixed well. The cells were incubated at 4°C in the dark for 20 min. […]
as §7

C=C1C[C@@H]2CC[C@@]34C[C@H]5O[C@H]6[C@@H](O3)[C@H]3O[C@H](CC[C@@H]3O[C@H]6[C@H]5O4)CC(=O)C[C@@H]3[C@@H](OC)[C@@H](C[C@H](O)CN)O[C@H]3C[C@H]3O[C@@H](CC[C@@H]1O2)C[C@@H](C)C3=C [Eribulin]
obvious: cell status (cell death / cell viability) under a microscope [1] | cell status (cell death / cell viability) under a microscope [2] | cell status (cell death) under a microscope [3] | cell status (cell death / cell viability) under a microscope [6] | cell status (cell death) under a microscope [7]
significantly enhanced: release and exposure of Calreticulin (MDA-MB-231 cells [4]) | early and late apoptosis (Annexin V kit) (MDA-MB-231 cells [5])

— patent EP4578449A1, “PHARMACEUTICAL COMBINATION OF FAK INHIBITOR AND MICROTUBULE INHIBITOR AND USE THEREOF” (Inxmed (Nanjing) Co., Ltd., priority 2022, dated 2024)
